Laboratory results as given in the supplement of paper PMC10307832.

Experiments:
Experiment in all cases: relative viability (nuclei count vs DMSO), 5 days (fraction); higher = more cells survive
4EGI-1 + Foretinib = compound: O=C(O)C(Cc1ccccc1[N+](=O)[O-])=NNc1nc(-c2ccc(Cl)c(Cl)c2)cs1 (mixture of isomers) [4EGI-1] + COc1cc2c(Oc3ccc(NC(=O)C4(C(=O)Nc5ccc(F)cc5)CC4)cc3F)ccnc2cc1OCCCN1CCOCC1 [Foretinib] (partner 0.25 µM)
In short: (§1)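 Medians of duplicate plates are given as relative viability. That measure is the nuclei count in treated wells divided by the count in vehicle wells. Counts were taken on 4× images of lung cancer cell lines in 1536-well plates, 5 days after pin-tool dosing the day after seeding with one drug alone or a fixed anchor-drug dose plus five library-drug doses (not always all listed) in √10 steps.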

4EGI-1 + Trametinib = compound: O=C(O)C(Cc1ccccc1[N+](=O)[O-])=NNc1nc(-c2ccc(Cl)c(Cl)c2)cs1 (mixture of isomers) [4EGI-1] + CC(=O)Nc1cccc(-n2c(=O)n(C3CC3)c(=O)c3c(Nc4ccc(I)cc4F)n(C)c(=O)c(C)c32)c1 [Trametinib] (partner 0.02 µM)
In short: as §1

4EGI-1 + Pictilisib = compound: O=C(O)C(Cc1ccccc1[N+](=O)[O-])=NNc1nc(-c2ccc(Cl)c(Cl)c2)cs1 (mixture of isomers) [4EGI-1] + CS(=O)(=O)N1CCN(Cc2cc3nc(-c4cccc5[nH]ncc45)nc(N4CCOCC4)c3s2)CC1 [Pictilisib] (partner 1 µM)
In short: as §1

XMD8-85 + Dasatinib = compound: CN1CCN(CC1)C2=CC(=C(C=C2)NC3=NC=C4C(=N3)N(C5=CC=CC=C5C(=O)N4C)C)OC [XMD8-85] + Cc1nc(Nc2ncc(C(=O)Nc3c(C)cccc3Cl)s2)cc(N2CCN(CCO)CC2)n1 [Dasatinib] (partner 0.075 µM)
In short: as §1

Row | Cell Line | relative viability (4EGI-1 + Foretinib; first compound 0.5 µM) | relative viability (4EGI-1 + Foretinib; first compound 1.581 µM) | relative viability (4EGI-1 + Foretinib; first compound 5 µM) | relative viability (4EGI-1 + Foretinib; first compound 15.81 µM) | relative viability (4EGI-1 + Foretinib; first compound 50 µM) | relative viability (4EGI-1 + Trametinib; first compound 0.5 µM) | relative viability (4EGI-1 + Trametinib; first compound 1.581 µM) | relative viability (4EGI-1 + Trametinib; first compound 5 µM) | relative viability (4EGI-1 + Trametinib; first compound 15.81 µM) | relative viability (4EGI-1 + Trametinib; first compound 50 µM) | relative viability (4EGI-1 + Pictilisib; first compound 0.5 µM) | relative viability (4EGI-1 + Pictilisib; first compound 1.581 µM) | relative viability (4EGI-1 + Pictilisib; first compound 5 µM) | relative viability (4EGI-1 + Pictilisib; first compound 15.81 µM) | relative viability (4EGI-1 + Pictilisib; first compound 50 µM) | relative viability (XMD8-85 + Dasatinib; first compound 0.08 µM) | relative viability (XMD8-85 + Dasatinib; first compound 0.253 µM) | relative viability (XMD8-85 + Dasatinib; first compound 0.8 µM) | relative viability (XMD8-85 + Dasatinib; first compound 2.53 µM) | relative viability (XMD8-85 + Dasatinib; first compound 8 µM)
1 | NCI-H1793 | 0.645 | 0.948 | 0.686 | 0.443 | 0.33 | 0.49 | 0.431 | 0.414 | 0.407 | 0.273 | 0.363 | 0.266 | 0.377 | 0.241 | 0.235 | 0.384 | 0.403 | 0.404 | 0.413 | 0.338
2 | NCI-H1703 | 0.38 | 0.373 | 0.348 | 0.349 | 0.326 | – | – | – | – | – | 0.266 | 0.253 | 0.238 | 0.222 | 0.255 | – | – | – | – | –
3 | EKVX | 1.08 | 0.121 | 0.925 | 0.686 | 0.815 | 0.436 | – | 0.351 | 0.239 | 0.268 | 0.443 | 0.371 | 0.442 | 0.262 | 0.405 | 0.518 | 0.545 | 0.478 | 0.536 | 0.475
4 | COR-L23 | 1.08 | 0.728 | 0.98 | 0.736 | 0.29 | 0.898 | 0.336 | 0.628 | 0.415 | 0.16 | 0.96 | 0.549 | 0.827 | 0.491 | 0.135 | 0.516 | 0.502 | 0.555 | 0.63 | 0.347
5 | SW 1573 | 1.13 | 0.954 | 1.13 | 0.878 | 0.52 | 0.59 | 0.476 | 0.526 | 0.514 | 0.251 | 0.549 | 0.562 | 0.461 | 0.445 | 0.47 | 0.466 | 0.364 | 0.393 | 0.499 | 0.343
6 | NCI-H1648 | – | – | – | – | – | 0.574 | 0.506 | 0.471 | 0.526 | 0.304 | – | – | – | – | – | – | – | – | – | –
7 | COR-L 105 | 0.983 | 0.172 | 0.993 | 0.863 | 0.728 | 0.462 | 0.444 | 0.44 | 0.401 | 0.394 | 0.464 | 0.356 | 0.447 | 0.342 | 0.325 | 0.336 | 0.364 | 0.292 | 0.268 | 0.171
8 | NCI-H2023 | 0.88 | – | 0.772 | 0.45 | 0.149 | 0.865 | – | 0.593 | 0.214 | 0.0814 | 0.275 | – | 0.207 | 0.177 | 0.0916 | 0.426 | 0.521 | 0.586 | 0.619 | 0.314
9 | NCI-H1355 | 0.932 | 0.87 | 0.962 | 0.851 | 0.738 | 0.47 | 0.428 | 0.372 | 0.319 | 0.33 | 0.372 | 0.396 | 0.493 | 0.362 | 0.277 | 0.671 | 0.753 | 0.653 | 0.819 | –
